Test [1] relates to T1, Ae. aegypti larval ACE (soluble peptidyl dipeptidase activity).
T1 construct: native; 55,000 g supernatant of whole 3rd instar larval homogenate, not purified; gene(s) not identified for this species
As to the kind of experiment: fluorogenic peptidase assay, larval high-speed supernatant. Format: biochemical. To be noted: substrate Abz-Phe-Arg-Lys(Dnp)-Pro-OH about 25 uM, pH 7.5, 50 mM NaCl, 10 uM ZnCl2, 20 C, 10 min pre-incubation, read-out: Aedes aegypti / IC50. The text has this: fluorogenic peptidase assay, larval high-speed supernatant on Ae. aegypti larval ACE (soluble peptidyl dipeptidase activity)

For test [2], the system named is T2, An. gambiae larval ACE (soluble peptidyl dipeptidase activity; one or both of AnoACE2 and AnoACE3).
T2 construct: native; 55,000 g supernatant of whole 3rd instar larval homogenate, not purified; AnoACE2 and/or AnoACE3 inferred by the authors from soluble activity and larval expression
Described as above. Format: biochemical. As to conditions: substrate Abz-Phe-Arg-Lys(Dnp)-Pro-OH about 25 uM, pH 7.5, 50 mM NaCl, 10 uM ZnCl2, 20 C, 10 min pre-incubation, read-out: Anopheles gambiae / IC50. The text has this:
fluorogenic peptidase assay, larval high-speed supernatant on An. gambiae larval ACE (soluble peptidyl dipeptidase activity; one or both of AnoACE2 and AnoACE3)

Molecules are shown by their SMILES. pIC50: −log10 of the molar value. Read-outs that look alike come from different tables or passages of the source.

Take `C[C@H](CS)C(=O)N1CCC[C@H]1C(=O)O` [captopril]: the figures for the pIC50 in test [1] and in test [2] were 8.61 and 7.78, respectively.

On to `CCC(=O)O[C@@H](O[P@](=O)(CCCCc1ccccc1)CC(=O)N1C[C@H](C2CCCCC2)C[C@H]1C(=O)O)C(C)C` [fosinopril], for which the pIC50 in test [1] (pro-drug ester of fosinoprilat) is 6.43; in test [2] (pro-drug ester of fosinoprilat) it was 6.49.

Turning to `O=C(O)[C@@H]1C[C@@H](C2CCCCC2)CN1C(=O)CP(=O)(O)CCCCc1ccccc1` [fosinoprilat], the pIC50 was 8.18 in test [1] and 7.45 in test [2].

Source of the values: paper PMC5366949, “The toxicity of angiotensin converting enzyme inhibitors to larvae of the disease vectors Aedes aegypti and Anopheles gambiae” (Scientific Reports, 2017).
